The record followed here is publication PMC9674958 (Proceedings of the National Academy of Sciences of the …, 2022).

Structures are written as SMILES.

The subject of assay [1] is tyrosinase (TYR) of Q. spinosa. The experiment in a line: absorbance at […] nm, Lineweaver-Burk fit. Format: biochemical, Quasipaa spinosa. To be noted: 15 uM CuSO4, 50 mM Na2HPO4, pH 6.2; L-DOPA 0.625-10 mM.
Assay [2] has as its system tyrosinase (TYR) of N. parkeri. In words: absorbance at […] nm, Lineweaver-Burk fit. To be noted: 15 uM CuSO4, 50 mM Na2HPO4, pH 6.2; L-DOPA 0.625-10 mM. Format: biochemical, Nanorana parkeri.

In the case of `N[C@@H](Cc1ccc(O)c(O)c1)C(=O)O` [L-DOPA], the Km in assay [1] is listed as 0.1663 ± 0.117 mM/L; in assay [2] it was 0.130 ± 0.073 mM/L.
